Test results as given in ChEMBL document CHEMBL2157937, “Discovery and optimization of C-2 methyl imidazopyrrolopyridines as potent and orally bioavailable JAK1 inhibitors with selectivity over JAK2” (J Med Chem, 2012).
Values after ≈ are worked out from the molar mass of the structure shown. One block for each compound: values may come before it.

Legend:
in vivo [1] = details: Sprague-Dawley, rat, iv, 0.4 mg/kg
physchem [2] = details: buffer, pH 7.4
in vitro [3] = details: Sprague-Dawley, rat, hepatocytes
Rattus norvegicus = species on record: Rattus norvegicus; details: in vivo, po, 2 mg/kg
physchem [4] = details: octanol/PBS buffer, pH 7.2
in vivo [5] = details: Sprague-Dawley, rat, plasma, po, 2 mg/kg
in vitro [6] = details: human, hepatocytes
in vivo [7] = details: Sprague-Dawley, rat, po, 0.4 mg/kg
in vivo [8] = details: Sprague-Dawley, rat, po, 2 mg/kg
physchem [9] = details: buffer, pH 2
in vivo [10] = details: rat, po, 2 mg/kg
[11] = Clearance in rat at 2 mg/kg, po; assay type: ADME, organism-based; design: dose 2 mg/kg, route oral; details: in vivo
[12] = AUC in rat at 2 mg/kg, po; assay type: ADME, organism-based; design: dose 2 mg/kg, route oral; details: plasma
in vivo [13] = details: rat, po, 2 mg/kg; remark: listed apart in the source

Structure (SMILES): Cc1nc2cnc3[nH]ccc3c2n1[C@H]1CC[C@H](NS(C)(=O)=O)CC1
- logD at 1 h, 10000 µM (physchem [4]): 1.2
- half-life at 1 µM (in vitro [6]): > 8 h

Structure (SMILES): CC(=O)N[C@H]1CC[C@H](n2c(C)nc3cnc4[nH]ccc4c32)CC1
- logD at 1 h, 10000 µM (physchem [4]): 1.1

Structure (SMILES): Cc1nc2cnc3[nH]ccc3c2n1[C@H]1CC[C@H](NCCC#N)CC1
- clearance (in vivo [1]): 80 mL/min/kg
- solubility thermodynamic at 24 h (physchem [2]): > 1500 µM
- bioavailability (in vivo [8]): 13%
- half-life at 1 µM (in vitro [3]): > 8 h
- logD at 1 h, 10000 µM (physchem [4]): 0.9
- solubility thermodynamic at 24 h (physchem [9]): > 5000 µM
- AUC (in vivo [5]): 0.18 µM·h
- half-life at 1 µM (in vitro [6]): > 8 h
- Cmax (in vivo [7]): 150 nM

Structure (SMILES): COC(=O)N[C@H]1CC[C@H](n2c(C)nc3cnc4[nH]ccc4c32)CC1
- clearance (in vivo [1]): 40 mL/min/kg
- solubility thermodynamic at 24 h (physchem [2]): 40 µM (≈ 13.1 µg/mL)
- bioavailability (in vivo [8]): 54%
- half-life at 1 µM (in vitro [3]): 3.5 h
- logD at 1 h, 10000 µM (physchem [4]): 2
- solubility thermodynamic at 24 h (physchem [9]): 2300 µM (≈ 753 µg/mL)
- AUC (in vivo [5]): 1.4 µM·h
- half-life at 1 µM (in vitro [6]): 3.9 h
- Cmax (in vivo [7]): 550 nM

Structure (SMILES): Cc1nc2cnc3[nH]ccc3c2n1[C@H]1CCCNC1
- logD at 1 h, 10000 µM (physchem [4]): 0.6
- half-life at 1 µM (in vitro [6]): > 8 h

Structure (SMILES): C[C@@H]1CCN(C(=O)CC#N)C[C@@H]1N(C)c1ncnc2[nH]ccc12 [TOFACITINIB]
- Cmax (in vivo [10]): 1700 nM
- CL/F [11]: 43 mL/min/kg
- AUC [12]: 2.1 µM·h
- bioavailability (in vivo [13]): 87%

Structure (SMILES): Cc1nc2cnc3[nH]ccc3c2n1C1CCN(CCC#N)CC1
- logD at 1 h, 10000 µM (physchem [4]): 1.3
- half-life at 1 µM (in vitro [6]): > 8 h

Continued, values first:

- clearance (in vivo [1]): 40 mL/min/kg
- solubility thermodynamic at 24 h (physchem [2]): > 1500 µM
- half-life at 1 µM (in vitro [3]): 1.6 h
- F (Rattus norvegicus): 172%
- logD at 1 h, 10000 µM (physchem [4]): 1.2
- AUC (in vivo [5]): 5.3 µM·h
- half-life at 1 µM (in vitro [6]): 1.8 h
- Cmax (in vivo [7]): 4500 nM
Structure (SMILES): Cc1nc2cnc3[nH]ccc3c2n1[C@@H]1CCNC[C@H]1F (relative stereo)

- logD at 1 h, 10000 µM (physchem [4]): 1.4
- half-life at 1 µM (in vitro [6]): > 8 h
Structure (SMILES): Cc1nc2cnc3[nH]ccc3c2n1[C@H]1CC[C@@H](O)CC1

- logD at 1 h, 10000 µM (physchem [4]): 1.8
- half-life at 1 µM (in vitro [6]): 6.3 h
Structure (SMILES): Cc1nc2cnc3[nH]ccc3c2n1[C@H]1CCCOC1

- logD at 1 h, 10000 µM (physchem [4]): 0.7
Structure (SMILES): Cc1nc2cnc3[nH]ccc3c2n1[C@@H]1CCNC[C@@H]1F (relative stereo)

- logD at 1 h, 10000 µM (physchem [4]): 1.4
- half-life at 1 µM (in vitro [6]): > 8 h
Structure (SMILES): Cc1nc2cnc3[nH]ccc3c2n1[C@H]1CC[C@H](O)CC1

- logD at 1 h, 10000 µM (physchem [4]): 1.6
- half-life at 1 µM (in vitro [6]): > 8 h
Structure (SMILES): Cc1nc2cnc3[nH]ccc3c2n1[C@@H]1CCCC[C@H]1O (relative stereo)

- clearance (in vivo [1]): 43 mL/min/kg
- solubility thermodynamic at 24 h (physchem [2]): > 1500 µM
- bioavailability (in vivo [8]): 4%
- half-life at 1 µM (in vitro [3]): > 8 h
- logD at 1 h, 10000 µM (physchem [4]): 0.1
- solubility thermodynamic at 24 h (physchem [9]): > 5000 µM
- AUC (in vivo [5]): 0.12 µM·h
- half-life at 1 µM (in vitro [6]): > 8 h
- Cmax (in vivo [7]): 60 nM
Structure (SMILES): Cc1nc2cnc3[nH]ccc3c2n1C1CCNCC1
